How the values were obtained:
[1] = pH 7
trypsin = assay: in vitro; details: isolated enzyme trypsin, pH 8.5

## CC[C@H](C)[C@H](NC(=O)[C@H](CC(C)C)NC(=O)[C@H](Cc1ccccc1)NC(=O)[C@H](CCC(N)=O)NC(=O)[C@H](CC(C)C)NC(=O)[C@H](CCCCN)NC(=O)CNC(=O)[C@H](Cc1ccc(O)cc1)NC(=O)[C@@H]1CCCN1C(=O)[C@@H](NC(=O)[C@@H]1CCCN1C(=O)[C@H](Cc1ccc(O)cc1)NC(=O)CNC(=O)[C@H](CCCCN)NC(=O)[C@H](Cc1c[nH]c2ccccc12)NC(=O)[C@@H]1CCCN1C(=O)CN)[C@@H](C)CC)C(=O)N[C@@H](CCCCN)C(=O)N[C@@H](CCCCN)C(=O)N[C@@H](CC(C)C)C(=O)N[C@@H](CCCCN)C(=O)N[C@@H](CCC(N)=O)C(=O)N[C@@H](CC(C)C)C(=O)N[C@@H](CCCCN)C(=O)N[C@H](C(N)=O)C(C)C [Peptide M49dN]
[1]
  α-helical structure / structural stability by CD: no α-helical structure
trypsin
  half-life: 5 ± 0.3 min

## CC[C@H](C)[C@H](NC(=O)[C@H](CC(C)C)NC(=O)[C@H](Cc1ccccc1)NC(=O)[C@H](CCC(N)=O)NC(=O)[C@H](CC(C)C)NC(=O)[C@H](CCCCN)NC(=O)CNC(=O)[C@H](Cc1ccc(O)cc1)NC(=O)[C@@H]1CCCN1C(=O)[C@@H](NC(=O)[C@@H]1CCCN1C(=O)[C@H](Cc1ccc(O)cc1)NC(=O)CNC(=O)[C@H](CCCCN)NC(=O)[C@H](Cc1c[nH]c2ccccc12)NC(=O)[C@@H]1CCCN1C(=O)CNC(=O)[C@H](CCC(=O)O)NC(=O)[C@H](CC(C)C)NC(=O)[C@H](C)NC(=O)[C@H](C)NC(=O)[C@H](CC(C)C)NC(=O)[C@H](CCC(=O)O)NC(=O)[C@H](C)NC(=O)[C@H](CCC(=O)O)NC(=O)[C@H](CC(C)C)NC(=O)[C@H](C)NC(=O)[C@H](C)NC(=O)[C@H](CC(C)C)NC(=O)[C@H](CCC(=O)O)NC(=O)[C@H](C)N)[C@@H](C)CC)C(=O)N[C@@H](CCCCN)C(=O)N[C@@H](CCCCN)C(=O)N[C@@H](CC(C)C)C(=O)N[C@@H](CCCCN)C(=O)N[C@@H](CCC(N)=O)C(=O)N[C@@H](CC(C)C)C(=O)N[C@@H](CCCCN)C(=O)N[C@H](C(N)=O)C(C)C [Peptide M49dS]
[1]
  α-helical structure / structural stability by CD: mostly denatured at 80 °C
trypsin
  half-life: 39 ± 2 min

Reference: paper PMC7906330 (PLoS ONE, 2021)
